Measured values reported in PMC6389703, “Identification of Biologically Active Ganoderma lucidum Compounds and Synthesis of Improved Derivatives That Confer Anti-cancer Activities in vitro” (Frontiers in Pharmacology, 2019).
Like-named read-outs stand apart in the source and are kept apart here.

Columns and labels:
[1] = tested on: various breast cancer cell lines; assay: Cell viability (CellTiter-Glo or PI staining), various breast cancer cell lines; assay type: cell-based, human; conditions: for EC50: Homo sapiens, 72-h treatment, CellTiter-Glo or PI staining
Procedure: (§1) Either 1 × 10^3–4.8 × 10^3 or 4 × 10^2–1.2 × 10^3 cells were seeded to each well of 96- or 384-well white polystyrene flat-bottomed plates (3610 or 8804BC, Corning) in 100 μL or 30 μL media per well, respectively. The concentrations used were experimentally determined to ensure logarithmic growth during the duration of the experiment and prevent adverse effects on cell growth by DMSO exposure. The plates were incubated at 37°C in 5% CO2 for 24 h before treatment. Stock solutions of test compounds (10 mM in DMSO) in nine 3-fold serial dilutions were dispensed via pintool (Biomek). The final concentration of DMSO was 0.3% (v/v) in each well. The plates were incubated for 72 h at 37°C in 5% CO2 and then quenched with CellTiter-Glo® reagent (50 μL/well in 96-well plate, 30 μL/well in 384-well plate) at RT. The positive controls included staurosporine (10 μM), gambogic acid (10 μM), and a toxic quinoline generated in-house. Plates were then incubated at RT for 20 min and centrifuged at 1000 rpm for 1 min. The cytotoxicity assay was performed by using the CellTiter-Glo® Luminescent Cell Viability Assay kit (G7570, Promega, Madison, WI, United States) according to the manufacturer’s instructions. Luminescence was recorded in an Envision plate reader (PerkinElmer).
(§2) Cell viability assays (MTT or PI staining assays) in SUM-149, SUM-190, MDA-MB-231, and MCF10A cells were performed as we previously described ([Suarez-Arroyo et al., 2016]).
(§3) For the CTG assay, 3 or 4 replicate assays were conducted for each experimental condition, and a minimum of 3 independent experiments were conducted for cellular assays. The mean luminescence of each experimental treatment group was normalized as a percentage of the mean intensity of untreated controls. EC50 values (μM) were calculated by Pipeline Pilot Software (Accelrys, Enterprise Platform, San Diego, CA, United States). EC50 values (μM) from the viability assay were calculated from dose response curve-fitting via non-linear regression by using GraphPad Prism (Version 7.0, San Diego, CA, United States). For cell viability, colony formation, cell-cycle progression, cell death, and western blot assays, the analyses were performed via one-way or two-way ANOVA with post-testing for each condition (concentration, cell cycle stage, apoptotic event, cell line) by using GraphPad Prism.

BJ cells = assay: cells; assay type: cell-based
Procedure: as §1, §3

MCF-7 cells = assay: ROS measurement (CellROX green), MCF-7; assay type: cell-based, human; conditions: for ROS increase (fold): GA-01, ergosterol, 5,6-dehydroergosterol 50 µM, EP 20 µM; for ROS formation reduction when co-treated with NAC: NAC 100 µM, TBHP 100 µM
Procedure: (§4) SUM-149 or MDA-MB-231 were plated in 96-well plates at a density of 2 × 10^4 and 1 × 10^4 cells/well, respectively, in black 96-well clear bottom tissue culture plates and incubated for 24 h at 37°C. The mRuby-Mito-7 plasmid was obtained from Addgene (#55874 from Michael Davidson). A stable clone of MCF-7 was generated by using Fugene 6 (Roche) to transfect cells (2 × 10^5) with plasmid (2.0 μg) under neomycin selection. A stable cell line was selected by using G418 (300 μg/mL) for 2 weeks, sorted by flow cytometry, and maintained under G418 thereafter. Transfected MCF-7 cells were plated at a density of 2 × 10^4 cells/well in black 96-well clear bottom tissue culture plates and incubated overnight at 37°C. To test for ROS formation and remove background, cells were replenished with fresh PBS with 2% FBS and treated with the desired compounds for 1 h at 37°C. DMSO (0.5%) was used as a negative control, while Menadione (Mena, at 10 μM) or t-Butyl hydroperoxide (TBHP) at 100 μM final concentration were used as a positive control. To evaluate the compounds’ effects on ROS formation inhibition, the free radical scavenger N-acetyl cysteine (NAC) was used. Cells were treated with or without NAC (500 μM or 100 μM) for 1 h, then CellROX® green reagent (Molecular Probes #C10444) was added to a final concentration of 5 μM, and cells were incubated for an additional 30 min at 37°C. Cells were then washed 2× with PBS, followed by fixation with 4% paraformaldehyde (v/v) for 15 min, and 2 more washes with PBS. Fluorescence intensity was measured in a Clariostar® plate reader (BMG LABTECH, Cary, NC, United States) at 535 nm.

MDA-MB-231 cells [2] = assay: ROS measurement (CellROX green), MDA-MB-231; assay type: cell-based, human; conditions: NAC 500 μM; menadione 10 μM
Procedure: as §4, with “Cells were treated with or without NAC (500 μM or 100 μM) for 1 h, then CellROX® green reagent (Molecular Probes #C10444) was added to a final concentration of 5 μM, and cells were incubated for an additional 30 min at 37°C. Cells were then washed 2× with PBS, followed by fixation with 4% paraformaldehyde (v/v) for 15 min, and 2 more washes with PBS.” left out

SUM-149 cells [3] = assay: ROS measurement (CellROX green), SUM-149; assay type: cell-based, human; conditions: NAC 500 μM; EP 20 μM, menadione 10 μM
Procedure: as §4

evaluated cell lines = assay: Cell viability, evaluated cell lines (palmitic acid); assay type: cell-based; conditions: tested concentration ≤100μM
Procedure: Either 1 × 10^3–4.8 × 10^3 or 4 × 10^2–1.2 × 10^3 cells were seeded to each well of 96- or 384-well white polystyrene flat-bottomed plates (3610 or 8804BC, Corning) in 100 μL or 30 μL media per well, respectively. The concentrations used were experimentally determined to ensure logarithmic growth during the duration of the experiment and prevent adverse effects on cell growth by DMSO exposure. The plates were incubated at 37°C in 5% CO2 for 24 h before treatment. Stock solutions of test compounds (10 mM in DMSO) in nine 3-fold serial dilutions were dispensed via pintool (Biomek). The final concentration of DMSO was 0.3% (v/v) in each well. […] Luminescence was recorded in an Envision plate reader (PerkinElmer). […]
as §3, with “For cell viability, colony formation, cell-cycle progression, cell death, and western blot assays, the analyses were performed via one-way or two-way ANOVA with post-testing for each condition (concentration, cell cycle stage, apoptotic event, cell line) by using GraphPad Prism.” left out

SUM-149 cells [4] = assay: ApoTox-Glo Triplex assay, SUM-149; assay type: cell-based, human; conditions: SUM-149, 24 h
Procedure: (§5) Cells (9.5 × 10^4/well in 75 μL of fresh medium) were dispensed in 96-well black flat bottom (8807BC, Corning) plates. The cells were incubated for 12 h at 37°C and then treated with compounds (25 μL) for 24 h. DMSO was used as a negative control, and staurosporine was used as the positive control. […] Then, the Caspase-Glo® 3/7 Reagent was added; plates were mixed briefly by orbital shaking (300-500 rpm for ∼30 s), followed by an additional 30 min incubation at RT. Then luminescence, which correlates with caspase 3/7 activation, was recorded with a plate reader to […] apoptosis induction.

MDA-MB-231 cells [5] = assay: ApoTox-Glo Triplex assay, MDA-MB-231; assay type: cell-based, human; conditions: MDA-MB-231, 24 h
Procedure: as §5

MDA-MB-231 cells [6] = assay: De novo in-cell protein synthesis (click assay); assay type: cell-based, human; conditions: 2 h; EP 20 μM
Procedure: First, 2.5 × 10^4 cells/well were seeded in 8-well μ-slides (Ibidi®, #80826) and incubated at 37°C for 12 h. The cells were treated with vehicle, compounds Ganoderic acid A or EP, or cycloheximide (positive control) for 2 h to determine protein synthesis as nascent proteins generated using Biovision’s EZClick^TM Global Protein Synthesis Assay Kit, (#K715-100, Milpitas, CA, United States). The assay includes a robust chemical method based on an alkyne containing o-propargyl-puromycin (OP-puro) probe, which stops translation by forming covalent conjugates with nascent polypeptide chains. Truncated polypeptides are rapidly turned over by the proteasome and can be detected based on the subsequent click reaction with a fluorescent azide. The reaction was conducted according to the manufacturer’s protocol. Cells were imaged at 20× with a Nikon C2 scanning confocal microscope, and the whole image montage was quantified by using Gen5 Software and Lionheart^TM FX Automated Microscope (BioTek, Winooski, VT, United States).

SUM-149 cells [7] = assay: Cell viability assay, SUM-149; assay type: cell-based, human
Procedure: as §1, §2, §3

physchem = conditions: organic solvent or mixture

CC(C)C(C)C=CC(C)C1CCC2C3=CCC4CC(O)CCC4(C)C3CCC21C (stereo not shown)
EC50 [1]: > 50 µM
cytotoxic effects in normal BJ cells (BJ cells): did not induce cytotoxic effects
ROS increase (fold) (MCF-7 cells): at least a twofold
ROS formation reduction when co-treated with NAC (MCF-7 cells): 9–25%

CC1=CC(=O)c2ccccc2C1=O [menadione, Menadione, reference compound]
reduction in ROS formation in the presence of NAC (MDA-MB-231 cells [2]): about 20%
reduction in ROS formation in the presence of NAC (SUM-149 cells [3]): about 20%

CC(C)(C)OO [TBHP, t-Butyl hydroperoxide, reference compound]
ROS formation reduction when co-treated with NAC (MCF-7 cells): ~50%

CCCCCCCCCCCCCCCC(=O)O [palmitic acid]
EC50 (BJ cells; Homo sapiens, BJ, Cell Titer Glo, 72-h treatment): > 100 µM
activity in the evaluated cell lines (evaluated cell lines): did not show activity
activity in the evaluated cell lines (evaluated cell lines; listed as Palmitic acid): No detected biological activity

C[C@H](CC(=O)C[C@@H](C)[C@H]1C[C@H](O)[C@@]2(C)C3=C(C(=O)C[C@]12C)[C@@]1(C)CCC(=O)C(C)(C)[C@@H]1C[C@@H]3O)C(=O)O [GA-01, ganoderic acid A]
EC50 [1]: > 50 µM
cytotoxic effects in normal BJ cells (BJ cells; at the concentrations tested): did not induce cytotoxic effects
caspase 3/7 activity (SUM-149 cells [4]): increase caspase 3/7 activity
viability (GF-AFC) (SUM-149 cells [4]): decrease viability
caspase 3/7 activity (MDA-MB-231 cells [5]): increase caspase 3/7 activity
viability (GF-AFC) (MDA-MB-231 cells [5]): decrease viability
de novo protein synthesis inhibition (MDA-MB-231 cells [6]): do not inhibit
ROS increase (fold) (MCF-7 cells): at least a twofold
ROS formation reduction when co-treated with NAC (MCF-7 cells): 9–25%

CC(C)[C@@H](C)/C=C/[C@@H](C)[C@H]1CC[C@H]2C34C=CC5(C[C@@H](OC(=O)NS(=O)(=O)c6ccccc6)CC[C@]5(C)C3CC[C@]12C)OO4 (stereo partly shown) [EP sulfonamide, ergosterol peroxide sulfonamide]
EC50 (SUM-149 cells [7]; Homo sapiens, SUM149, SUM-149, Figure 10A, read-out: EC50, cancer cell viability (derivatives)): 12 µM
cytotoxic effects in normal BJ cells (BJ cells; at the concentrations tested): minimal
solubility (physchem): ≥ 10 mM

CC(C)[C@@H](C)/C=C/[C@@H](C)[C@H]1CC[C@H]2C3=CC=C4C[C@@H](O)CC[C@]4(C)[C@H]3CC[C@]12C [ergosterol]
EC50 [1]: > 50 µM
concentration from which cancer cell viability is significantly reduced ([1]; breast cancer cellular models): 64 µM
concentration at which SUM-149 cell viability is significantly reduced (SUM-149 cells [7]; 72 h): 64 µM
cytotoxic effects in normal BJ cells (BJ cells): did not induce cytotoxic effects
ROS increase (fold) (MCF-7 cells): at least a twofold
ROS formation reduction when co-treated with NAC (MCF-7 cells): 9–25%
